Consider 13 compounds from patent publication US20260226068A1, “IMIDAZOTRIAZINE IL-17A MODULATORS AND USES THEREOF” (DICE ALPHA, INC., priority 2023, published 2026).

One assay deals with T1, IL-17A/F (Homo sapiens, UniProt Q16552+Q96PD4).
T1 construct: purchased R&D Systems
T1 sequence (Q16552 24-155): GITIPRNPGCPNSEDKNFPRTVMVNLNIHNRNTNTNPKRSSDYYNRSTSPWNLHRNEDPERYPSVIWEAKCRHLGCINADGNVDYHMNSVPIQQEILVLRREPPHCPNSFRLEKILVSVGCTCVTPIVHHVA
T1 sequence (Q96PD4 31-163): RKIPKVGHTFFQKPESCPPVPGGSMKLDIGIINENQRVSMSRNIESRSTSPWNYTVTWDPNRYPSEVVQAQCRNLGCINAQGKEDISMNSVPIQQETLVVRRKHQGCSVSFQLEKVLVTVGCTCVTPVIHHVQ
Nature of the assay: IL-17A/F HEK-Blue cell assay (SEAP reporter). The following applies: HEK-Blue IL-17A reporter cells, IL17A/F 5 ng/mL, 20 hours, SEAP read at A630; read-out: HEK-Blue IL17AF (IC50 for IL-17A/F inhibition). The format is cell-based.

In a further assay the target is T2, IL-17A/A (Homo sapiens, UniProt Q16552).
T2 construct: purchased Genscript Z03228
T2 sequence (Q16552 24-155): T1 sequence (Q16552 24-155)
Nature of the assay: IL-17A/A HEK-Blue cell assay (SEAP reporter). It is filed as cell-based. The following applies: HEK-Blue IL-17A reporter cells, IL17A/A 5 ng/mL, 20 hours, SEAP read at A630; read-out: HEK-Blue IL17AA (IC50 for IL-17A/A inhibition).

On to `CCn1nccc1C(=O)N[C@H](c1cn2nc(C[C@H]3C[C@@H](C(F)(F)F)CNC3=O)c(N3CCO[C@@H](C)C3)nc2n1)[C@H]1CC[C@H](C)CC1` [Compound 158, 1-ethyl-N—((S)-((1r,4S)-4-methylcyclohexyl)(3-((S)-2-methylmorpholino)-2-(((3R,5R)-2-oxo-5-(trifluoromethyl)piperidin-3-yl)methyl)imidazo[1,2-b][1,2,4]triazin-6-yl)methyl)-1H-pyrazole-5-carboxamide], for which the IC50 was 100 to 1000 nM at IL-17A/F and less than 100 nM at IL-17A/A.
On to `CCn1nccc1C(=O)N[C@H](c1cn2nc(C[C@H]3C[C@H](C(F)(F)F)CNC3=O)c(C(C)(C)F)nc2n1)C1CCC(F)(F)CC1` [Compound 161, N-((1S)-(4,4-difluorocyclohexyl)(3-(2-fluoropropan-2-yl)-2-(((3R,5S)-2-oxo-5-(trifluoromethyl)piperidin-3-yl)methyl)imidazo[1,2-b][1,2,4]triazin-6-yl)methyl)-1-ethyl-1H-pyrazole-5-carboxamide], for which the IC50 was more than 1000 nM at IL-17A/F and less than 100 nM on IL-17A/A.
For `CCn1nccc1C(=O)N[C@H](c1cn2nc(C[C@H]3C[C@@H](C(F)(F)F)CNC3=O)c(N3CCC4(CCOCC4)C3)nc2n1)C1CCC(F)(F)CC1` [Compound 162, N—((S)-(4,4-difluorocyclohexyl)(2-(((3R,5R)-2-oxo-5-(trifluoromethyl)piperidin-3-yl)methyl)-3-(8-oxa-2-azaspiro[4.5]decan-2-yl)imidazo[1,2-b][1,2,4]triazin-6-yl)methyl)-1-ethyl-1H-pyrazole-5-carboxamide] the same measures were 100 to 1000 nM and less than 100 nM.
`CCn1nccc1C(=O)N[C@H](c1cn2nc(C[C@H]3C[C@@H](C(F)(F)F)CNC3=O)c(C3(C)CCOCC3)nc2n1)C1CCC(F)(F)CC1` [Compound 164, N-((1S)-(4,4-difluorocyclohexyl)(3-(4-methyltetrahydro-2H-pyran-4-yl)-2-(((3R,5R)-2-oxo-5-(trifluoromethyl)piperidin-3-yl)methyl)imidazo[1,2-b][1,2,4]triazin-6-yl)methyl)-1-ethyl-1H-pyrazole-5-carboxamide]: the IC50 on IL-17A/F is 100 to 1000 nM; at IL-17A/A, less than 100 nM.
Regarding `CCc1nc2nc([C@@H](NC(=O)c3ccnn3CC)C3CCC(F)(F)CC3)cn2nc1C[C@H]1C[C@@H](C(F)(F)F)CNC1=O` [Compound 167, N-((1S)-(4,4-difluorocyclohexyl)(3-ethyl-2-(((3R,5R)-2-oxo-5-(trifluoromethyl)piperidin-3-yl)methyl)imidazo[1,2-b][1,2,4]triazin-6-yl)methyl)-1-ethyl-1H-pyrazole-5-carboxamide], the results for the IC50 on IL-17A/F and at IL-17A/A were 100 to 1000 nM and less than 100 nM, respectively.
As for `CCn1nccc1C(=O)N[C@H](c1cn2nc(C[C@H]3C[C@@H](C(F)(F)F)CNC3=O)c(CC3COC3)nc2n1)C1CCC(F)(F)CC1` [Compound 168, N-((1S)-(4,4-difluorocyclohexyl)(3-(oxetan-3-ylmethyl)-2-(((3R,5R)-2-oxo-5-(trifluoromethyl)piperidin-3-yl)methyl)imidazo[1,2-b][1,2,4]triazin-6-yl)methyl)-1-ethyl-1H-pyrazole-5-carboxamide], the figures for the IC50 at IL-17A/F and at IL-17A/A were 100 to 1000 nM and less than 100 nM, respectively.
The matching figures for `CCn1nccc1C(=O)N[C@H](c1cn2nc(C[C@H]3C[C@@H](C(F)(F)F)CNC3=O)c(C(C)(C)C3CCOCC3)nc2n1)C1CCC(F)(F)CC1` [Compound 169, N-((1S)-(4,4-difluorocyclohexyl)(2-(((3R,5R)-2-oxo-5-(trifluoromethyl)piperidin-3-yl)methyl)-3-(2-(tetrahydro-2H-pyran-4-yl)propan-2-yl)imidazo[1,2-b][1,2,4]triazin-6-yl)methyl)-1-ethyl-1H-pyrazole-5-carboxamide]: more than 1000 nM and less than 100 nM.
In the case of `CCn1nccc1C(=O)N[C@H](c1cn2nc(C[C@H]3C[C@@H](C(F)(F)F)CNC3=O)c(CC3CCOC3)nc2n1)C1CCC(F)(F)CC1` (stereo partly drawn) [Compound 170, N-((1S)-(4,4-difluorocyclohexyl)(2-(((3R,5R)-2-oxo-5-(trifluoromethyl)piperidin-3-yl)methyl)-3-((tetrahydrofuran-3-yl)methyl)imidazo[1,2-b][1,2,4]triazin-6-yl)methyl)-1-ethyl-1H-pyrazole-5-carboxamide], the IC50 on IL-17A/F was 100 to 1000 nM; on IL-17A/A it was less than 100 nM.
On to `CCn1nccc1C(=O)N[C@H](c1cn2nc(C[C@H]3C[C@@H](C(F)(F)F)CNC3=O)c(CC3CCCO3)nc2n1)C1CCC(F)(F)CC1` (stereo partly drawn) [Compound 171, N-((1S)-(4,4-difluorocyclohexyl)(2-(((3R,5R)-2-oxo-5-(trifluoromethyl)piperidin-3-yl)methyl)-3-((tetrahydrofuran-2-yl)methyl)imidazo[1,2-b][1,2,4]triazin-6-yl)methyl)-1-ethyl-1H-pyrazole-5-carboxamide], for which the figures for the IC50 on IL-17A/F and on IL-17A/A were 100 to 1000 nM and less than 100 nM, respectively.
As for `CCn1nccc1C(=O)N[C@H](c1cn2nc(C[C@H]3C[C@@H](C(F)(F)F)CNC3=O)c(CC3CCCCO3)nc2n1)C1CCC(F)(F)CC1` (stereo partly drawn) [Compound 172, N-((1S)-(4,4-difluorocyclohexyl)(2-(((3R,5R)-2-oxo-5-(trifluoromethyl)piperidin-3-yl)methyl)-3-((tetrahydro-2H-pyran-2-yl)methyl)imidazo[1,2-b][1,2,4]triazin-6-yl)methyl)-1-ethyl-1H-pyrazole-5-carboxamide], the IC50 on IL-17A/F is 100 to 1000 nM; at IL-17A/A, less than 100 nM.
For `CCn1nccc1C(=O)N[C@H](c1cn2nc(C[C@H]3C[C@@H](C(F)(F)F)CNC3=O)c(CC3COCCO3)nc2n1)C1CCC(F)(F)CC1` (stereo partly drawn) [Compound 173, N-((1S)-(3-((1,4-dioxan-2-yl)methyl)-2-(((3R,5R)-2-oxo-5-(trifluoromethyl)piperidin-3-yl)methyl)imidazo[1,2-b][1,2,4]triazin-6-yl)(4,4-difluorocyclohexyl)methyl)-1-ethyl-1H-pyrazole-5-carboxamide] the same measures were more than 1000 nM and 100 to 1000 nM.
For `CCn1nccc1C(=O)N[C@H](c1cn2nc(C[C@H]3C[C@@H](C(F)(F)F)CNC3=O)c(CC3CCOCC3)nc2n1)[C@H]1CC[C@H](C)CC1` [Compound 179, 1-ethyl-N-((1S)-((1R,4S)-4-methylcyclohexyl)(2-(((3R,5R)-2-oxo-5-(trifluoromethyl)piperidin-3-yl)methyl)-3-((tetrahydro-2H-pyran-4-yl)methyl)imidazo[1,2-b][1,2,4]triazin-6-yl)methyl)-1H-pyrazole-5-carboxamide], the IC50 at IL-17A/F and at IL-17A/A was less than 100 nM throughout.
For the compound `CCn1nccc1C(=O)N[C@H](c1cn2nc(C[C@H]3C[C@@H](C(F)(F)F)CNC3=O)c(N(C)C3COC3)nc2n1)C1CCC(F)(F)CC1` [Compound 180, N—((S)-(4,4-difluorocyclohexyl)(3-(methyl(oxetan-3-yl)amino)-2-(((3R,5R)-2-oxo-5-(trifluoromethyl)piperidin-3-yl)methyl)imidazo[1,2-b][1,2,4]triazin-6-yl)methyl)-1-ethyl-1H-pyrazole-5-carboxamide], the IC50 on IL-17A/F was more than 1000 nM; on IL-17A/A, 100 to 1000 nM.
